# Laboratory results from publication PMC9430695.
# Read-outs that look alike come from different tables or passages of the source.
# Legend:
# [1] = target: T1, Sortase A (SrtA) (Staphylococcus aureus, UniProt Q2FV99); assay: biochemical; set-up: FRET cleavage of Abz-LPATG-Dap(Dnp)-NH2 by purified SrtA, fluorescence 309/420 nm
# T1 construct: SrtA residues Gln-60-Lys-206 (SrtA ΔN59), from S. aureus USA300, 6 × His tag
# Method: Fluorescence resonant energy transfer (FRET) was used to screen the effect of the SrtA inhibitor ([22]). Purified SrtA (4 μM) and hibifolin with different concentrations were added into a 100 μL reaction system, incubating at 37°C for 1 h. A fluorescent substrate peptide Abz-LPATG-Dap (Dnp)-NH2 (10 μM) (Beijing, China) was added to initiate the reaction. After incubating at 37°C for 20 min, the fluorescent microplate reader was measured with the excitation wavelength at 309 nm and the emission wavelength at 420 nm. Subsequently, a gradient concentration inhibition curve was performed and IC50 was calculated. When the inhibitory activity was greater than 60%, the compound was considered a potential inhibitor. The representative list of our nature compounds library has been compiled in Table S3 in Supplemental File 1 along with the results of the initial screening.
# [2] = target: T1, Sortase A (SrtA); assay: fluorescence quenching (KA); also FRET inhibition of purified SrtA, IC50 […]; type: binding; details: read-out: fluorescence quenching (KA), IC50 31.20 μ (converted)
# [3] = read-out: SrtA relative inhibition rate (%)
# [4] = library screen, read-out: Relative inhibition rate (%)
# T1 sequence (Q2FV99 60-206): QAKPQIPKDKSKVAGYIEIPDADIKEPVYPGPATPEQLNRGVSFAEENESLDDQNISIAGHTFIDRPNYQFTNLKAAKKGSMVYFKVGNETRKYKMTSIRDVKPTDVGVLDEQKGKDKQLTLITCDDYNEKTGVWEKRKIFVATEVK
SMILES,"inhibition at 64 µg/mL [1, 3] [%]","inhibition at 64 µg/mL [1, 4] [%]",Kd [2] [µM]
O=c1cc(-c2ccc(Oc3c(O)cc4oc(-c5ccc(O)cc5)cc(=O)c4c3O)cc2)oc2cc(O)cc(O)c12 [Hinokiflavone],36.2,,
COc1cc2c(c(OC)c1OC)-c1c(cc3c(c1OC)OCO3)[C@H](OC(C)=O)[C@H](C)[C@H](C)C2 [Kadsurin],,16.9,
COc1c(O[C@@H]2O[C@H](CO)[C@@H](O)[C@H](O)[C@H]2O)cc2occ(-c3ccc(O)cc3)c(=O)c2c1O [Tectoridin],,20,
COc1ccc([C@@H]2OC[C@H]3[C@@H]2CO[C@@H]3c2ccc(O[C@@H]3O[C@H](CO)[C@@H](O)[C@H](O)[C@H]3O)c(OC)c2)cc1OC [Forsythin],,14.8,
O=c1c(O[C@@H]2O[C@@H](CO)[C@H](O)[C@H]2O)c(-c2ccc(O)c(O)c2)oc2cc(O)cc(O)c12 [Avicularin],,45.3,
"O=C(O[C@H]1[C@H](Oc2c(-c3ccc(O)c(O)c3)oc3cc(O)cc(O)c3c2=O)O[C@H](CO)[C@H](O)[C@@H]1O)c1cc(O)c(O)c(O)c1 [2""-O-Galloylhyperin]",,42.4,
C[C@@H]1O[C@@H](Oc2cc(O)c3c(=O)c(O)c(-c4ccc(O)c(O)c4)oc3c2)[C@H](O)[C@H](O)[C@H]1O [Vincetoxicoside B],57.2,,
Oc1cc(O)c2c(c1)O[C@H](c1ccc(O)c(O)c1)[C@H](O)[C@H]2c1c(O)cc(O)c2c1O[C@H](c1ccc(O)c(O)c1)[C@H](O)C2 [Procyanidin B2],,13.8,
O=C(O)[C@H]1O[C@@H](Oc2c(O)cc(O)c3c(=O)c(O)c(-c4ccc(O)c(O)c4)oc23)[C@H](O)[C@@H](O)[C@@H]1O [hibifolin],74.6,65.3,58.1
COc1ccc(-c2cc(=O)c3c(O)c(OC)c(OC)c(OC)c3o2)cc1OC [5-Demethylnobiletin],,54.3,
O=C(/C=C/c1ccc(O)c2c1[C@H](C(=O)O)[C@@H](c1ccc(O)c(O)c1)O2)O[C@H](Cc1ccc(O)c(O)c1)C(=O)O [Lithospermic acid],,51.7,
"COc1ccc(-c2oc3cc(OC)cc(O)c3c(=O)c2OC)cc1 [Kaempferol 3,7,4'-trimethyl ether]",,32.6,
COc1cc(-c2coc3cc(O)c(OC)c(O)c3c2=O)cc(O)c1OC [Irigenin],,30.3,
O=c1c(O[C@@H]2O[C@H](CO)[C@@H](O)[C@H](O)[C@H]2O[C@@H]2OC[C@@H](O)[C@H](O)[C@H]2O)c(-c2ccc(O)cc2)oc2cc(O)cc(O)c12 [Leucoside],,27.3,
O=c1c(O[C@@H]2O[C@H](CO)[C@@H](O)[C@H](O)[C@H]2O[C@@H]2O[C@H](CO)[C@@H](O)[C@H](O)[C@H]2O)c(-c2ccc(O)c(O)c2)oc2cc(O)cc(O)c12 [Quercetin 3-O-sophoroside],,37.8,
C/C=C/c1cc(OC)c2c(c1)[C@@H](C)[C@H](c1ccc3c(c1)OCO3)O2 [(-)-Licarin B],,38.9,
COC(=O)[C@H]1O[C@@H](Oc2cc3oc(-c4ccc(O)cc4)cc(=O)c3c(O)c2O)[C@H](O)[C@@H](O)[C@@H]1O [Scutellarin Methyl Ester],73.8,,
"COc1ccc(-c2coc3cc(OC)ccc3c2=O)cc1 [7,4'-Dimethoxyisoflavone]",,44,

SMILES,"inhibition at 64 µg/mL [1, 3] [%]","inhibition at 64 µg/mL [1, 4] [%]",Kd [2] [µM]
COc1cc(O)c2c(=O)cc(-c3ccc(OC)c(-c4c(O)cc(O)c5c(=O)cc(-c6ccc(O)cc6)oc45)c3)oc2c1 [Ginkgetin],,0.25,
C=CCc1cc(OC)c(O[C@@H](C)[C@H](O)c2ccc(O)c(OC)c2)c(OC)c1 [Myrislignan],,1.72,
COc1ccc(-c2cc(=O)c3c(O)cc(O)cc3o2)cc1-c1c(O)cc(O)c2c(=O)cc(-c3ccc(O)cc3)oc12 [Bilobetin],,17.8,
O=C1c2c(O)cc(O)cc2O[C@H](c2ccc(O)c(O)c2)[C@H]1O [Taxifolin],56,,
O=c1cc(-c2ccc(O)cc2)oc2c([C@@H]3O[C@H](CO)[C@@H](O)[C@H](O)[C@H]3O)c(O)c([C@@H]3O[C@H](CO)[C@@H](O)[C@H](O)[C@H]3O)c(O)c12 [Vicenin-2],67.6,,
O=c1cc(-c2ccc(O)cc2)oc2cc(O)c(O)c(O)c12 [Scutellarein],,42.1,
O=c1cc(-c2ccc(O)cc2)oc2cc(O[C@@H]3O[C@H](CO)[C@@H](O)[C@H](O)[C@H]3O)cc(O)c12 [Cosmosiin],,46.8,
CC(C)=CCC/C(C)=C/Cc1cc(-c2coc3cc(O)ccc3c2=O)ccc1O [Corylifol A],,36.8,
COc1c(O)cc2oc(-c3ccc(O)cc3)cc(=O)c2c1O [Hispidulin],,50,
COc1cc(C[C@H](C)[C@H](C)Cc2ccc3c(c2)OCO3)ccc1O [Anwulignan],,15.6,
COc1ccc(-c2cc(=O)c3c(OC)c(OC)c(OC)cc3o2)cc1OC [Sinensetin],,23.8,
"COc1ccc(-c2cc(=O)c3c(OC)cc(OC)c(OC)c3o2)cc1 [5,7,8,4'-Tetramethoxyflavone]",,27.4,
O=c1c(-c2ccc(O[C@@H]3O[C@H](CO)[C@@H](O)[C@H](O)[C@H]3O)cc2)coc2cc(O)cc(O)c12 [Sophoricoside],,14.4,
COc1ccc(-c2oc3cc(OC)c(OC)c(O)c3c(=O)c2OC)cc1OC [Artemetin],,32.8,
COc1cc(-c2oc3cc(OC)c(OC)c(O)c3c(=O)c2OC)ccc1O [Chrysosplenetin],,34.2,
COc1cc(-c2oc3cc(O)cc(O)c3c(=O)c2O[C@@H]2O[C@H](CO[C@@H]3O[C@@H](C)[C@H](O)[C@@H](O)[C@H]3O)[C@@H](O)[C@H](O)[C@H]2O)ccc1O [Narcissin],,44.5,
COc1ccc(-c2oc3cc(O)cc(O)c3c(=O)c2O)cc1O [Tamarixetin],26.2,,
